This note sets out measurements from patent publication US20140031227A1, “HERBICIDAL COMPOSITIONS COMPRISING 4-AMINO-3-CHLORO-5-FLUORO-6-(4-CHLORO-2-FLUORO-3-METHOXYPHENYL) PYRIDINE-2-CARBOXYLIC ACID OR A DERIVATIVE THEREOF AND GLYPHOSATE OR GLUFOSINATE” (DOW AGROSCIENCES LLC, priority 2012, published 2014).

Structures can show the parent of a compound that is named as a salt.

Common to all, as to assay type: in vivo
For test [1], the system named is IPOHE (Ipomoea hederacea Jacq., ivyleaf morningglory). The experiment in a line: Example I postemergence foliar-applied mixtures, direct seeded rice weeds, greenhouse: IPOHE. The following applies: glyphosate DMA salt (Durango DMA) alone, 105 gae/ha. On the procedure:
(§1) Seeds or nutlets of the desired test plant species were planted in a soil matrix prepared by mixing a loam or sandy loam soil (e.g., 28.6 percent silt, 18.8 percent clay, and 52.6 percent sand, with a pH of about 5.8 and an organic matter content of about 1.8 percent) and calcareous grit in an 80 to 20 ratio. The soil matrix was contained in plastic pots with a volume of 1 quart and a surface area of 83.6 square centimeters (cm^2). […] The plants were grown for 8-22 days in a greenhouse with an approximate 14 hr photoperiod which was maintained at about 29° C. during the day and 26° C. during the night. Nutrients (Peters Excel® 15-5-15 5-Ca 2-Mg and iron chelate) were applied in the irrigation solution as needed and water was added on a regular basis. Supplemental lighting was provided with overhead metal halide 1000-Watt lamps as necessary. The plants were employed for testing when they reached the first through fourth true leaf stage.
(§2) Treatments consisted of the acid or esters of 4-amino-3-chloro-5-fluoro-6-(4-chloro-2-fluoro-3-methoxy-phenyl)pyridine-2-carboxylic acid (Compound A), each formulated as an SC (suspension concentrate), and various herbicidal components alone and in combination. Forms of compound A were applied on an acid equivalent basis.
(§3) For treatments comprised of formulated compounds, measured amounts of compounds were placed individually in 25 mL glass vials and diluted in a volume of 1.25% (v/v) Agri-Dex® crop oil concentrated to obtain 12× stock solutions. […] Application solutions were prepared by adding an appropriate amount of each stock solution (e.g., 1 mL) and diluted to the appropriate final concentrations with the addition of 10 mL of an aqueous mixture of 1.25% (v/v) crop oil concentrate so that the final spray solutions contained 1.25+/−0.05% (v/v) crop oil concentrate.
(§4) All stock solutions and applications solutions were visually inspected for compound compatibility prior to application. Spray solutions were applied to the plant material with an overhead Mandel track sprayer equipped with a 8002E nozzles calibrated to deliver 187 L/ha over an application area of 0.503 m^2 at a spray height of 18 to 20 inches (46 to 50 cm) above average plant canopy height. Control plants were sprayed in the same manner with the solvent blank.
(§5) The treated plants and control plants were placed in a greenhouse as described above and watered by sub-irrigation to prevent wash-off of the test compounds. After approximately 3 weeks, the condition of the test plants as compared with that of the untreated plants was determined visually and scored on a scale of 0 to 100 percent where 0 corresponds to no injury or growth inhibition and 100 corresponds to complete kill.
(§6) Colby's equation was used to determine the herbicidal effects expected from the mixtures (Colby, S. R. 1967. Calculation of the synergistic and antagonistic response of herbicide combinations. Weeds 15:20-22.).

Test [2] concerns DIGSA (Digitaria sanguinalis (L.) Scop., large crabgrass). As to the kind of experiment: Example I postemergence foliar-applied mixtures, direct seeded rice weeds, greenhouse: DIGSA. Conditions: glyphosate DMA salt (Durango DMA) alone, 210 gae/ha. On the procedure:
as §1, §2, §3, §4, §5, §6

Test [3] relates to SORHA (Sorghum halepense (L.) Pers., johnsongrass). As to the kind of experiment: Example III postemergence foliar-applied mixtures, row crop weeds (corn, soybean), greenhouse: SORHA. The following applies: glyphosate DMA salt (Durango DMA) alone. As for the experimental part: (§7) Seeds or nutlets of the desired test plant species were planted in a soil matrix prepared by mixing a loam or sandy loam soil (e.g., 43 percent silt, 19 percent clay, and 38 percent sand, with a pH of about 8.1 and an organic matter content of about 1.5 percent) and calcareous grit in an 80 to 20 ratio. The soil matrix was contained in plastic pots with a surface area of 84.6 square centimters (cm^2) and a volume of 560 cubic centimeters (cm^3). […] The plants were grown for 7-31 days (d) in a greenhouse with an approximate 15 hour (h) photoperiod which was maintained at about 23-29° C. during the day and 22-28° C. during the night. Nutrients (Peters Excel® 15-5-15 5-Ca 2-Mg) and water were added on a regular basis and supplemental lighting was provided with overhead metal halide 1000-Watt lamps as necessary. The plants were employed for testing when they reached the first, second, or third true leaf stage.
Treatments consisted of the acid or esters of 4-amino-3-chloro-5-fluoro-6-(4-chloro-2-fluoro-3-methoxy-phenyl)pyridine-2-carboxylic acid (Compound A), each formulated as an
SC (suspension concentrate), and various herbicidal components alone and in combination. Forms of compound A were applied on an acid equivalent basis.
(§8) Other herbicidal components were applied on an acid equivalent or active ingredient basis and included the 5-enolpyruvylshikimate-3-phosphate synthase (EPSPS)-inhibiting herbicide, glyphosate dimethylamine salt, formulated as Durango DMA® and the glutamine synthase (GS)-inhibiting herbicide, glufosinate ammonium, formulated as Ignite® 280.
For treatments comprised of formulated compounds, measured amounts of compounds were placed individually in 25 mL glass vials and diluted in a volume of 1.5% (v/v) Agri-dex® crop oil concentrate to obtain 6× stock solutions. […] Application solutions were prepared by adding an appropriate amount of each stock solution (typically 2 mL) and diluted to the appropriate final concentrations with the addition of an aqueous mixture of 1.5% (v/v) crop oil concentrate and water so that the final spray solutions contained 1.25% (v/v) crop oil concentrate.
(§9) All stock solutions and applications solutions were visually inspected for compound compatibility prior to application. Compound requirements are based upon a 12 mL application volume at a rate of 187 liters per hectare (L/ha). Formulated compounds were applied to the plant material with an overhead Mandel track sprayer equipped with 8002E nozzles calibrated to deliver 187 L/ha over an application area of 0.503 square meters (m^2) at a spray height of 18 to 20 inches (46 to 50 cm) above the average plant canopy height. Control plants were sprayed in the same manner with the solvent blank.
The treated plants and control plants were placed in a greenhouse as described above and watered by sub-irrigation to prevent wash-off of the test compounds. After approximately 2 weeks, the condition of the test plants as compared with that of the untreated plants was determined visually and scored on a scale of 0 to 100 percent where 0 corresponds to no injury or growth inhibition and 100 corresponds to complete kill.
The following equation was used to calculate the expected activity of mixtures containing two active ingredients, A and B: […]

The subject of test [4] is VIOTR (Viola tricolor L., wild violet). As to the kind of experiment: Example IV postemergence foliar-applied mixtures, general weed control, greenhouse: VIOTR. The following applies: glyphosate DMA salt (Durango DMA) alone. On the procedure:
as §7, with “Sun Gro Metro-Mix® 360 planting mixture, which typically has” for “a soil matrix prepared by mixing a loam or sandy loam soil (e.g., 43 percent silt, 19 percent clay, and 38 percent sand, with”, “6.0 to 6.8” for “about 8.1”, “30 percent,” for “1.5 percent) and calcareous grit in an 80 to 20 ratio. The soil matrix was contained”, “square” for “square centimters (cm^2) and a volume of 560 cubic”, “(cm^2).” for “(cm^3).”
(§10) Treatments consisted of the acid or the benzyl ester of 4-amino-3-chloro-5-fluoro-6-(4-chloro-2-fluoro-3-methoxy-phenyl)pyridine-2-carboxylic acid (Compound A), each formulated as an SC, and various herbicidal components alone and in combination. Forms of compound A were applied on an acid equivalent basis.
as §8
(§11) For treatments comprised of formulated compounds, measured amounts of compounds were placed individually in 25 mL glass vials and diluted in a volume of 1.25% (v/v) Agri-dex crop oil concentrated to obtain 12× stock solutions. […] Application solutions were prepared by adding an appropriate amount of each stock solution (typically 1 mL) and diluted to the appropriate final concentrations with the addition of 10 mL of an aqueous mixture of 1.25% (v/v) Agri-dex crop oil concentrate so that the final spray solutions contained 1.25% (v/v) Agri-dex crop oil concentrate.
All stock solutions and applications solutions were visually inspected for compound compatibility prior to application. Compound requirements are based upon a 12 mL application volume at a rate of 187 liters per hectare (L/ha). […]
The treated plants and control plants were placed in a greenhouse as described above and watered by sub-irrigation to prevent wash-off of the test compounds. After approximately 3 weeks, the condition of the test plants as compared with that of the untreated plants was determined visually and scored on a scale of 0 to 100 percent where 0 corresponds to no injury or growth inhibition and 100 corresponds to complete kill. […]

Test [5] relates to SETFA (Setaria faberi Herrm., giant foxtail). As to the kind of experiment: Example IV postemergence foliar-applied mixtures, general weed control, greenhouse: SETFA. Conditions: glyphosate DMA salt (Durango DMA) alone. On the procedure:
as §7, with “Sun Gro Metro-Mix® 360 planting mixture, which typically has” for “a soil matrix prepared by mixing a loam or sandy loam soil (e.g., 43 percent silt, 19 percent clay, and 38 percent sand, with”, “6.0 to 6.8” for “about 8.1”, “30 percent,” for “1.5 percent) and calcareous grit in an 80 to 20 ratio. The soil matrix was contained”, “square” for “square centimters (cm^2) and a volume of 560 cubic”, “(cm^2).” for “(cm^3).”
as §10, §8, §11, §9, §5
(§12) Colby's equation was used to determine the herbicidal effects expected from the mixtures (Colby, S. R. 1967. Calculation of the synergistic and antagonistic response of herbicide combinations. Weeds 15:20-22.) .

Test [6] has as its system CHEAL (Chenopodium album L., common lambsquarters). The experiment in a line: Example IV postemergence foliar-applied mixtures, general weed control, greenhouse: CHEAL. Conditions: glyphosate DMA salt (Durango DMA) alone. On the procedure: as §7, with “Sun Gro Metro-Mix® 360 planting mixture, which typically has” for “a soil matrix prepared by mixing a loam or sandy loam soil (e.g., 43 percent silt, 19 percent clay, and 38 percent sand, with”, “6.0 to 6.8” for “about 8.1”, “30 percent,” for “1.5 percent) and calcareous grit in an 80 to 20 ratio. The soil matrix was contained”, “square” for “square centimters (cm^2) and a volume of 560 cubic”, “(cm^2).” for “(cm^3).”
as §10, §8, §11, §9, §5, §12

Test [7] deals with DIGSA (Digitaria sanguinalis (L.) Scop., large crabgrass). As to the kind of experiment: Example IV postemergence foliar-applied mixtures, general weed control, greenhouse: DIGSA. Conditions: glyphosate DMA salt (Durango DMA) alone, 210 gae/ha. On the procedure: as §7, with “Sun Gro Metro-Mix® 360 planting mixture, which typically has” for “a soil matrix prepared by mixing a loam or sandy loam soil (e.g., 43 percent silt, 19 percent clay, and 38 percent sand, with”, “6.0 to 6.8” for “about 8.1”, “30 percent,” for “1.5 percent) and calcareous grit in an 80 to 20 ratio. The soil matrix was contained”, “square” for “square centimters (cm^2) and a volume of 560 cubic”, “(cm^2).” for “(cm^3).”
as §10, §8, §11, §9, §5, §12

On to `O=C(O)CNCP(=O)(O)O` [Glyphosate DMA Salt, N-(phosphonomethyl)glycine, reference compound], for which, in test [1], the “Visual Weed Control (%) - 21 DAA IPOHE Obs” value is given as 30%. In test [2], the “Visual Weed Control (%) - 21 DAA DIGSA Obs” value was found to be 75%. The “Visual Weed Control (%) - 16 DAA SORHA Obs” value in test [3] (105 gae/ha) stood at 0%; in test [3] (210 gae/ha), 10%; in test [3] (420 gae/ha), 25%. Further, the “Visual Weed Control (%) - 18 DAA VIOTR Obs” value in test [4] (210 gae/ha) is recorded as 60%; in test [4] (420 gae/ha), 85%. In addition, the results for the “VisualWeed Control (%) - 18 DAA SETFA Obs” value in test [5] (210 gae/ha) and in test [5] (420 gae/ha) were 10% and 90%, respectively. In addition, the “Visual Weed Control (%) - 18 DAA CHEAL Obs” value in test [6] (420 gae/ha) was found to be 0%; in test [6] (840 gae/ha) it was 30%. The “Visual Weed Control (%) - 18 DAA DIGSA Obs” value in test [7] stood at 40%.
